Measurements reported in patent US20250195488A1, “MEDICINE CONTAINING VITAMIN D DERIVATIVE OR PHARMACEUTICALLY ACCEPTABLE SALT OR SOLVATE THEREOF, USED IN COMBINATION WITH IMMUNOMODULATORY SUBSTANCE” (TEEJIN PHARMA LIMITED, priority 2022, published 2025).

Key:
human VDR = biological target: T1, human VDR (Homo sapiens, UniProt P11473); test: Evaluation of VDR transcription activity in human osteoblasts (HOS cells), luciferase reporter; type: cell-based; conditions: read-out: Activity (EC50 of VDR transcriptional activity)
T1 construct: expressed in transfected cells; host or cells: HOS cells (ATCC), human osteoblast line; pcDNA3 expression vector
T1 sequence (P11473 1-427): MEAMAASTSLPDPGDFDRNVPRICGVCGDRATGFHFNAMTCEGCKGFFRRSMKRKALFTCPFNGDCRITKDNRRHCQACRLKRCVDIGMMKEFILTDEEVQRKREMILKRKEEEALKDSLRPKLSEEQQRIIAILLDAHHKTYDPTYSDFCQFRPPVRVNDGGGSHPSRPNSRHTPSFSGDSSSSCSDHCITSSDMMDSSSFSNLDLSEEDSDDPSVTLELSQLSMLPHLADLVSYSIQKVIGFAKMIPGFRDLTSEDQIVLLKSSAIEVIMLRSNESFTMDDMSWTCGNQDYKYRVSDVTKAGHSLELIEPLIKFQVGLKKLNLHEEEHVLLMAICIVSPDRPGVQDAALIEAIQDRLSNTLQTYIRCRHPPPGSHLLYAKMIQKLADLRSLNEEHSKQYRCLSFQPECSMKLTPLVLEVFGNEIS
T1 sequence (P19793 1-462 partner): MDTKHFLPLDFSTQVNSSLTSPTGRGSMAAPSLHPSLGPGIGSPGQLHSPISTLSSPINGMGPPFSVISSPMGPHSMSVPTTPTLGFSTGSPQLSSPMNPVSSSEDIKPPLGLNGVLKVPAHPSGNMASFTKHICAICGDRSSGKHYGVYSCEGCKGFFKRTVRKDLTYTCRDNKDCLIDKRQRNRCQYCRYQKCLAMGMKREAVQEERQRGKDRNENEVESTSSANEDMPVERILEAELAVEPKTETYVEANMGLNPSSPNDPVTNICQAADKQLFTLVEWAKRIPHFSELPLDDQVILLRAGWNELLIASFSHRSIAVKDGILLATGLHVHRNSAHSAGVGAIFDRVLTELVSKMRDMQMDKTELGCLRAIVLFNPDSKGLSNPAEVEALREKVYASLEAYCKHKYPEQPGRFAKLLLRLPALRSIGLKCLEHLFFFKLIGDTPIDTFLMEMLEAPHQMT
Protocol: (1) A reporter vector was constructed using pGL4.26 vector (Promega Corporation) and incorporating a sequence of DR3 (×4) gene promoter portion upstream of the luciferase gene. An expression vector was constructed by inserting a DNA sequence encoding human VDR and human RXRα into pcDNA3 vector (Thermo Fisher Scientific, Inc.). Human RenillaLuc-CMV vector (Promega Corporation) was used for the correction of gene transfer efficiency. HOS cells (ATCC) were cultured in DMEM medium containing 10% FBS under the condition of 37° C. and 5% CO2, and passaged every 2 or 3 days. (2) The passaged cells were collected by centrifugation and dispersed in phenol red free DMEM medium containing deactivated and 5% charcoal-treated fetal bovine serum (CSS) at a density of 4×10^5 cells/mL, and then the various vectors described in (1) were introduced using Lipofectamine LTX (Thermo Fisher Scientific, Inc.) reagent at a ratio of 0.25 mL per 1 mL of the cell solution. […] (3) After the incubation for 21 hours under the condition of 37° C. and 5% CO2, the luciferase activity was measured by multi-label counter EnVision (PerkinElmer, Inc.) using Dual-Glo Luciferase Assay kit (Promega Corporation). At the same time, the activity of Renilla luciferase was measured and used to correct the gene transfer efficiency.

[1] = tested on: rat oligodendrocyte progenitor cells; test: Promotive activity of rat oligodendrocyte progenitor cell differentiation-2 (immunostaining of MBP); type: cell-based; conditions: Test 2; vitamin D derivative 2 μM, T3 30 nM, 4 days; DMSO 0.07
Protocol: The promotive activity of oligodendrocyte progenitor cell (OPC) differentiation of the vitamin D derivatives was evaluated by immunostaining of MBP.
Subsequently, oligodendrocyte progenitor cell separation medium was added to the flask, and the mixture was similarly shaken for about 22 hours (37° C., 200 rpm), and the supernatant was collected to prepare oligodendrocyte progenitor cells.

EC50 (human VDR) [nM] | Compound | mean (number of MBP-positive cells/number of Hoechst33342-positive cells) [1]
100 to 1000 | C[C@H](CN1CC[C@@H](F)C1)[C@H]1CC[C@H]2/C(=C/C=C3C[C@@H](O)C[C@H](O)C3)CCC[C@]12C [Compound B013, (1R,3R)-5-(2-((1R,3aS,7aR,E)-1-((S)-1-((R)-3-fluoropyrrolidin-1-yl)propan-2-yl)-7a-methyloctahydro-4H-inden-4-ylidene)ethylidene)cyclohexane-1,3-diol] | 
 | C[C@H](CN1CC[C@@H](CC(F)F)C1)[C@H]1CC[C@H]2/C(=C/C=C3C[C@@H](O)C[C@H](O)C3)CCC[C@]12C [Compound B043, (1R,3R)-5-(2-((1R,3aS,7aR,E)-1-((S)-1-((S)-3-(2,2-difluoroethyl)pyrrolidin-1-yl)propan-2-yl)-7a-methyloctahydro-4H-inden-4-ylidene)ethylidene)cyclohexane-1,3-diol] | 0.53
